Measured values taken from ChEMBL document CHEMBL3046799, “Synthesis and in vivo anticancer and antiangiogenic effects of novel thioxothiazolidin-4-one derivatives against transplantable mouse tumor” (2010).
Activity calls are given as the source filed them. The rule behind the calls is not given here.

Legend:
EAT [1] = experiment: Antiangiogenic activity in Mus musculus (mouse) EAT xenografted in Mus musculus (mouse) assessed as reduction of vascularization at 100 mg/kg, ip administered day 7 to 11 post tumor implantation measured on day 12 relative to control; type: functional, organism-based; design: dose 100 mg/kg
[2] = (§1) Antitumor activity against Mus musculus (mouse) EAT xenografted in Mus musculus (mouse) assessed as decrease in tumor volume at 100 mg/kg, ip administered day 7 to 11 post tumor implantation measured on day 12 (reference value: 7.6 +/- 0.9 ml); type: functional; details: route intraperitoneal
[3] = Antitumor activity against Mus musculus (mouse) EAT xenografted in Mus musculus (mouse) assessed as increase in life span at 100 mg/kg, ip administered day 7 to 11 post tumor implantation measured up to 28 days relative to control; type: functional; details: route intraperitoneal
EAT [4] = experiment: Antitumor activity against Mus musculus (mouse) EAT xenografted in Mus musculus (mouse) assessed as decrease in body weight at 100 mg/kg, ip administered day 7 to 11 post tumor implantation measured on day 12 relative to control
EAT [5] = experiment: as §1; type: functional

Compound	Activity (EAT [1])	Activity [2]	Activity [3]	Activity (EAT [4])	Activity (EAT [5])
COc1ccc(CCNC(=O)CN2C(=O)/C(=C/c3ccc(-c4ccc(Cl)cc4)o3)SC2=S)cc1	Active	5.7 mL	37.5%	Active	
O=C(CN1C(=O)/C(=C/c2ccc(-c3ccc(Cl)cc3)o2)SC1=S)Nc1ccon1	Active		18.25%	Active	Active
Cc1nc(-c2ccc(NC(=O)CN3C(=O)/C(=C/c4ccc(-c5ccc(Cl)cc5)o4)SC3=S)cc2)no1	Active	5.2 mL	43.75%	Active	
O=C(CN1C(=O)/C(=C/c2ccc(-c3ccc(Cl)cc3)o2)SC1=S)N1CCN(c2ccccc2F)CC1	Active		31.25%	Active	Active
CCCCNC(=O)CN1C(=O)/C(=C/c2ccc(-c3ccc(Cl)cc3)o2)SC1=S	Active		12.5%	Active	
COC(=O)C(Cc1ccc(O)cc1)NC(=O)CN1C(=O)/C(=C/c2ccc(-c3ccc(Cl)cc3)o2)SC1=S (configuration not stated)	Active		25%	Active	Active
COc1ccc(Cn2nc(C3CC3)cc2NC(=O)CN2C(=O)/C(=C/c3ccc(-c4ccc(Cl)cc4)o3)SC2=S)cc1	Active	4.8 mL	56.25%	Active	
